How the values were obtained:
[1] = Solubilization in water, visual (turbidity, floating particles vs transparent solution); type: physicochemical; conditions: equivalent amounts of free and nanoparticle-encapsulated drug
[2] = Blood levels of rapamycin 2 hours after oral delivery (HPLC); type: in vivo, C57/B6 wild type mice; conditions: 15 mg/kg rapamycin or equivalent, 2 hours post delivery
Text: FIG. 10 illustrates blood levels of rapamycin following oral delivery of polymeric nanoparticles. Rapamycin was encapsulated in nanoparticles comprised of increasing order of acrylic acid (AA) percentage in the co-polymeric composition. The nanoparticles were either administered as is, or after surface PEGylation. Compared are: Control A (rapamycin suspended in water); rapamycin nanoparticle comprised of NIPAAM:VP:AA in a ratio of 60:30:10 (designated as NVA631); rapamycin nanoparticle comprised of NIPAAM:VP:AA in a ratio of 60:20:20 (designated as NVA622); rapamycin nanoparticle comprised of NIPAAM:VP:AA in a ratio of 60:10:30 (designated as NVA613); and rapamycin nanoparticle comprised of NIPAAM:MMA:AA in a ratio of 60:20:20 (designated as NMA622). The corresponding PEGylated nanoparticles (PEG-NVA-631, PEG-NVA-622, PEG-NVA-613, and PEG-NMA-622) encapsulating rapamycin are designated as shaded bars. […] Blood levels are measured by HPLC from samples obtained at 2 hours post oral delivery.
Rapamycin is a poorly water soluble drug that has low oral bioavailability. […] At 2 hours post oral administration, the mice were bled and rapamycin concentrations in the blood were determined by high performance liquid chromatography (HPLC). […]

[3] = test system: BxPC3 human pancreatic cancer cell line; assay: In vitro cell viability (MTT) assay, BxPC3; type: cell-based; conditions: increasing dosages, 96 hours
Text: In the illustrated example, NIPAAM/VP/AA polymeric nanoparticles in molar ratio of 60:20:20 were used for paclitaxel encapsulation. […] Also included as control in each condition were void polymeric nanoparticle equal to the amount required for encapsulating said dose of nanopaclitaxel (white bar) and solvent (dimethylsulfoxide [DMSO], blue bar) equal to the amount required for dissolving said dose of free paclitaxel. […] Thus, nano-encapsulation of the drug is not associated with loss of drug activity. […] All assays were performed in triplicate and error bars represent standard deviations.
FIG. 9 illustrates in vitro cell viability (MTT assay) performed using the water-soluble drug gemcitabine conjugated to the acrylic acid (AA) surface reactive functional group of polymeric nanoparticle. Unlike the poorly water drugs that are encapsulated within the nanoparticle, water soluble drugs like gemcitabine can be conjugated to the nanoparticle surface, rendering this compound amenable to oral delivery. Human pancreatic cancer cell line BxPC3 is incubated with increasing dosages of either free gemcitabine (black bar), nano-gemcitabine (white bar), void polymer (grey bar), or PBS solvent (patterned bar). UT=untreated. […] All assays were performed in triplicate and means and standard deviations are plotted. […]

Row | solubility in water (appearance of solution) [1] | blood level of rapamycin [2] | Compound | activity in cell viability assay, free vs nano-gemcitabine [3]
1 | essentially insoluble in water | – | CO[C@H]1/C=C/O[C@@]2(C)Oc3c(C)c(O)c4c(O)c(c(/C=N/N5CCN(C)CC5)c(O)c4c3C2=O)NC(=O)/C(C)=C\C=C\[C@H](C)[C@H](O)[C@@H](C)[C@@H](O)[C@@H](C)[C@H](OC(C)=O)[C@@H]1C [free rifampicin, rifampicin] | –
2 | essentially insoluble in water | essentially undetectable | CO[C@H]1C[C@@H]2CC[C@@H](C)[C@@](O)(O2)C(=O)C(=O)N2CCCC[C@H]2C(=O)O[C@H]([C@H](C)C[C@@H]2CC[C@@H](O)[C@H](OC)C2)CC(=O)[C@H](C)/C=C(\C)[C@@H](O)[C@@H](OC)C(=O)[C@H](C)C[C@H](C)/C=C/C=C/C=C/1C [free rapamycin, rapamycin] | –
3 | essentially insoluble in water | – | CC(=O)O[C@H]1C(=O)[C@@]2(C)[C@H]([C@H](OC(=O)c3ccccc3)[C@]3(O)C[C@H](OC(=O)[C@H](O)[C@@H](NC(=O)c4ccccc4)c4ccccc4)C(C)=C1C3(C)C)[C@]1(OC(C)=O)CO[C@@H]1C[C@@H]2O [free paclitaxel, paclitaxel] | –
4 | – | – | Nc1ccn([C@@H]2O[C@H](CO)[C@@H](O)C2(F)F)c(=O)n1 [free gemcitabine, gemcitabine] | comparable activity

— patent US8313777B2, “Water-dispersible oral, parenteral, and topical formulations for poorly water soluble drugs using smart polymeric nanoparticles” (The Johns Hopkins University, priority 2006, dated 2012)
